Source: ChEMBL document CHEMBL3046779, “Synthesis and anti-juvenile hormone activity of ethyl 4-[(6-substituted 2,2-dimethyl-2H-chromen-7-yl)methoxy]benzoates” (2010)

Tests used:
Format in all cases: functional
[1] = tested on: Bombyx mori; experiment: Antijuvenile hormone activity against third-instar larvae of Bombyx mori assessed as precocious metamorphosis-inducing activity at 40 ug/larva
[2] = tested on: Bombyx mori; experiment: Antijuvenile hormone activity against third-instar larvae of Bombyx mori assessed as precocious metamorphosis-inducing activity at 10 ug/larva
[3] = tested on: Bombyx mori; experiment: Antijuvenile hormone activity against third-instar larvae of Bombyx mori assessed as precocious metamorphosis-inducing activity at 1 ug/larva
[4] = tested on: Bombyx mori; experiment: Antijuvenile hormone activity against allatectomized third-instar larvae of Bombyx mori assessed as number of larvae transformed into precocious pupa at 40 ug/larva (reference value: 10)
[5] = tested on: Bombyx mori; experiment: Antijuvenile hormone activity against allatectomized third-instar larvae of Bombyx mori assessed as number of larvae transformed into precocious pupa at 1 ug/larva (reference value: 10)
[6] = tested on: Bombyx mori; experiment: Antijuvenile hormone activity against allatectomized third-instar larvae of Bombyx mori assessed as number of larvae transformed into fifth-instar larvae at 40 ug/larva (reference value: 0)
[7] = tested on: Bombyx mori; experiment: Antijuvenile hormone activity against allatectomized third-instar larvae of Bombyx mori assessed as number of larvae transformed into larval pupa intermediate at 1 ug/larva (reference value: 0)
[8] = tested on: Bombyx mori; experiment: Antijuvenile hormone activity against allatectomized third-instar larvae of Bombyx mori assessed as number of larvae transformed into fifth instar larvae at 1 ug/larva (reference value: 0)
[9] = tested on: Bombyx mori; experiment: Antijuvenile hormone activity against allatectomized third-instar larvae of Bombyx mori assessed as number of larvae transformed into larval pupa intermediate at 40 ug/larva (reference value: 0)

SMILES | Activity [1] [%] | Activity [2] [%] | Activity [3] [%] | Activity [4] | Activity [5] | Activity [6] | Activity [7] | Activity [8] | Activity [9]
CCOC(=O)c1ccc(OCc2ccc3c(c2)OC(C)(C)C=C3)cc1 | 65 | 20 | 0 |  |  |  |  |  | 
CCOC(=O)c1ccc(OCc2cc3c(cc2OC)C=CC(C)(C)O3)cc1 | 100 | 95 | 75 | 0 | 2 | 10 | 6 | 2 | 0
CCOC(=O)c1ccc(OCc2cc3c(cc2OCC)C=CC(C)(C)O3)cc1 | 20 | 5 | 0 |  |  |  |  |  | 
CCCOc1cc2c(cc1COc1ccc(C(=O)OCC)cc1)OC(C)(C)C=C2 | 16 | 0 | 0 |  |  |  |  |  | 
CCOC(=O)c1ccc(OCc2cc3c(cc2OCc2ccccc2)C=CC(C)(C)O3)cc1 | 100 | 100 | 40 |  |  |  |  |  | 
CCOC(=O)c1ccc(OCc2cc3c(cc2OC)CCC(C)(C)O3)cc1 | 87 | 94 | 46 | 0 |  | 10 |  |  | 0
CCOC(=O)c1ccc(OCc2cc3c(cc2OC)OCCO3)cc1 | 79 | 58 | 10 |  |  |  |  |  | 
CCOC(=O)c1ccc(OCc2cc3c(cc2OC)CCCC3)cc1 | 30 | 10 | 0 |  |  |  |  |  | 
CCOC(=O)c1ccc(OCc2cc(OC)c(OC)cc2OC)cc1 | 0 | 0 | 0 |  |  |  |  |  | 
COC(C)(C)CCC[C@H](C)C/C=C/C(C)=C/C(=O)OC(C)C [METHOPRENE] |  |  |  |  | 0 |  | 0 | 10 | 
